Test results reported in patent US6365614B1, “Fungicides mixtures” (priority 1997, dated 2002).

System: Plasmopara viticola
Assay: Curative action against Plasmopara viticola on potted grapevines
Format: in vivo, Plasmopara viticola on grapevines cv. Müller-Thurgau
Settings: grapevine leaves, untreated control 73% infection
Description: Curative action against Plasmopara viticola
Leaves of potted grapevines cv. “Müller-Thurgau” were inoculated with an aqueous zoospore suspension of Plasmopara viticola. The grapevines were subsequently kept in a water-vapor-saturated chamber at 22-24° C. for 48 hours. They were then removed from the chambers and, after they had dried, sprayed to run off point with an aqueous preparation of active compound which had been prepared from a stock solution comprising 10% of active compound, 63% of cyclohexanone and 27% of emulsifier. After the spray coating had dried on, the plants were cultivated for another 5 days in the greenhouse at 20-30° C. After this time, the plants were returned into a humid chamber for 16 hours to accelerate the eruption of sporangiophore. The extent to which the disease had developed on the undersides of the leaves was then determined visually in %.
Evaluation is carried out by determining the infected leaf areas in percent. These percentages are converted into efficacies. The expected efficacies of the active compound mixtures are determined using Colby's formula [R. S. Colby, Weeds 15, 20-22 (1967)] and compared with the observed efficacies. Colby's formula: […]
expected efficacy, expressed in % of the untreated control, when using the mixture of the active compounds A, B and C at the concentrations a, b and c x efficacy, expressed in % of the untreated control, when using active compound A at a concentration of a y efficacy, expressed in % of the untreated control, when using active compound B at a concentration of b z efficacy, expressed in % of the untreated control, when using active compound C at a concentration of c The efficacy(E) is calculated as follows using Abbot's formula: […]
α corresponds to the fungal infection of the treated plants in % and β corresponds to the fungal infection of the untreated (control) plants in % An efficacy of 0 means that the infection level of the treated plants corresponds to that of the untreated control plants; an efficacy of 100 means that the treated plants were not infected.

[1] = 1 ppm active compound in the spray liquor

| SMILES | Efficacy in % of the untreated control [1] [%] | Efficacy in % of the untreated control (4 ppm active compound in the spray liquor) [%] | Efficacy in % of the untreated control (16 ppm active compound in the spray liquor) [%] |
| --- | --- | --- | --- |
| Cc1cccc(C)c1N(C(=O)CCl)C1CCOC1=O (stereo not shown) [II.2, Ofurace] | 0 | 73 | 73 |
| COCC(=O)N(c1c(C)cccc1C)C(C)C(=O)OC (stereo not shown) [II.3, metalaxyl] | 59 | – | – |
